The results in this text go back to publication PMC8510274, “Plasma-Induced Oxidation Products of (–)-Epigallocatechin Gallate with Digestive Enzymes Inhibitory Effects” (Molecules, 2021).

A word on the IC50: it is the point on the concentration scale where inhibition reaches its midpoint.

Read-outs that look alike come from different tables or passages of the source. Some results are limits rather than exact numbers.

In assay [1] the target is T1, Porcine pancreatic α-amylase (Sus scrofa, UniProt P00690).
T1 construct: purchased Sigma-Aldrich; host or cells: porcine pancreas
T1 sequence (P00690 16-511): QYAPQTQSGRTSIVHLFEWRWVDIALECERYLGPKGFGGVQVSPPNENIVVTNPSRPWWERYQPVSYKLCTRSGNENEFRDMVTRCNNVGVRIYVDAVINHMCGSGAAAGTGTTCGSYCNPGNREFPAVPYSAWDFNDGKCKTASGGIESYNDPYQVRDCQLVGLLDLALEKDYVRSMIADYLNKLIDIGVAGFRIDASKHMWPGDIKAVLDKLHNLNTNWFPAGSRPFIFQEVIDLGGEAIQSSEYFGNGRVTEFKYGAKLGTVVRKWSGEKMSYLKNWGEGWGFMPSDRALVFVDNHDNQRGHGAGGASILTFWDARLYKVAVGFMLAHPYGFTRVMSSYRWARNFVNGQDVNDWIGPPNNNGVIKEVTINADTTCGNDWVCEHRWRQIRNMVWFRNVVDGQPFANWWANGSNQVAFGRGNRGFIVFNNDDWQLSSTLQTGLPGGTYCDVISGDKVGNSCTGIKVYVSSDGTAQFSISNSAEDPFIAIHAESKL
The assay is described as follows: α-amylase inhibition assay (potato starch, DNS reagent). It is filed as biochemical. On the procedure:
(§1) The specific optical rotation was obtained using a JASCO P-2000 polarimeter (JASCO, Tokyo, Japan), and fast atom bombardment mass spectrometry (FABMS) was recorded on a JMS-700 spectrometer (JEOL, Tokyo, Japan) in negative mode.
(§2) The α-amylase inhibition assay was performed using a previously reported method with slight modifications. Porcine pancreatic α-amylase (1 unit, 90 µL) was incubated with the sample, and the positive control, at various concentrations. The reaction was started by adding 100 µL of a 1% potato starch solution, in 20 mM phosphate buffer (pH 6.9), to the reaction mixture. […] The mixture was then boiled at 80 °C for 10 min in a water bath and then cooled on ice. The α-amylase inhibitory activity was measured at 540 nm using an ELISA reader. Enzyme inhibition (%) = [1−(A1/A0)] × 100(1) where A0 and A1 are the absorbance of the control and sample, respectively. The α-glucosidase and α-amylase inhibition (%) was calculated, and the half-maximal inhibitory concentration (IC50) was determined by linear regression analysis of the inhibitory activities under the assay conditions.

Assay [2] deals with T2, α-glucosidase (EC 3.2.1.20) from Saccharomyces cerevisiae (Saccharomyces cerevisiae, UniProt P53341).
T2 construct: purchased Sigma-Aldrich
The assay is described as follows: biochemical. How it is done:
as §1
The α-glucosidase inhibitory activities of the compounds were evaluated using a minor modification of a previously reported method. The reaction mixture consisted of an enzyme solution (0.5 unit of α-glucosidase, 90 μL), a substrate (1 mM p-NPG, 100 μL) in a 0.1 M phosphate buffer (pH 7.0), and the isolated compounds, and positive control in 5% DMSO (10 μL). After incubation at 37 °C for 30 min, 0.1 M NaOH was added to quench the reaction.
as §2

Setting [3] is: isolated compounds, triplicate, acarbose positive control, read-out: IC50 Value α-Amylase (converted).
[4] abbreviates: IC50 Value α-Glucosidase, isolated compounds, triplicate, acarbose positive control.

T2 sequence (P53341 whole entry): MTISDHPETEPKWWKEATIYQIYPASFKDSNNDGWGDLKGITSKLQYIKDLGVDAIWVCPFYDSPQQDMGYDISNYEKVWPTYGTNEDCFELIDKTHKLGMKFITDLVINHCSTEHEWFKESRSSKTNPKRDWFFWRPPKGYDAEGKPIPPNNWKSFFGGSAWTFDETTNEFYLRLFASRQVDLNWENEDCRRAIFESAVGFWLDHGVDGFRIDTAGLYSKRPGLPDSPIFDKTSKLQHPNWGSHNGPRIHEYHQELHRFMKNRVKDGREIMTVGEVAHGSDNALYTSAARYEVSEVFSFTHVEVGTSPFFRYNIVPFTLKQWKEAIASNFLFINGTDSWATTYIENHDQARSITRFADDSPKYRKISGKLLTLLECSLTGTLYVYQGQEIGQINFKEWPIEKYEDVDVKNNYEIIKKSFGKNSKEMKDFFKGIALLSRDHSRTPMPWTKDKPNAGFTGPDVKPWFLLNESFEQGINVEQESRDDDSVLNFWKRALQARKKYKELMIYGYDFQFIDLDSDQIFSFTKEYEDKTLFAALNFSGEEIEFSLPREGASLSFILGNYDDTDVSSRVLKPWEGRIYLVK

For the molecule `O=C(O[C@@H]1Cc2c(O)cc(O)cc2O[C@@H]1C1=CC(=O)C2(O)C3C([C@H]4Oc5cc(O)cc(O)c5C[C@H]4OC(=O)c4cc(O)c(O)c(O)c4)=CC(=O)C4(O)C1C2(O)OC34O)c1cc(O)c(O)c(O)c1` (stereo partly shown) [Compound 1, EGCG quinone dimer A], the half-maximal inhibitory concentration (IC50) in assay [1] (setting [3]) was 18.7 ± 0.3 µM; in assay [2] (read-out: IC50 Value α-Glucosidase), 15.9 ± 0.3 µM.
With `O=C(O[C@@H]1Cc2c(O)cc(O)cc2O[C@@H]1c1cc(O)c(O)c(O)c1)c1cc(O)c(O)c(O)c1` [EGCG, (−)-Epigallocatechin gallate, reference compound], the IC50 in assay [1] (setting [3]) was 75.5 ± 1.3 µM; in assay [1] (plasma irradiation time 0 min (control, parent EGCG), read-out: IC50 Value α-Amylase (converted)), 75.3 µM; in assay [2] (setting [4]) it was 97.2 ± 1.2 µM; in assay [2] (IC50 Value α-Glucosidase, plasma irradiation time 0 min (control, parent EGCG)), 97.1 µM.
For `O=C(O[C@@H]1Cc2c(O)cc(O)cc2O[C@@H]1C1=CC(=O)[C@]2(O)C(=O)c3c(cc(O)c(O)c3O)[C@H]12)c1cc(O)c(O)c(O)c1` [Compound 2, theacitrinin A], the figures for the half-inhibitory concentration (IC50) in assay [1] and in assay [2] (setting [4]) were 25.3 ± 0.6 µM and 20.7 ± 0.5 µM, respectively.
In the case of `O=C(O)c1cc(O)c(O)c(O)c1` [Compound 3, gallic acid], the concentration for half-maximal inhibition (IC50) in assay [1] and in assay [2] (setting [4]) was more than 300 µM throughout.
